Measurements published in patent US20160000127A1, “MANGO FLAVOR COMPOSITIONS” (MARS, INCORPORATED, priority 2013, published 2016).

Experiments:
[1] = Aroma extract dilution analysis (AEDA) by GC-O of aroma isolates of fresh mango cultivars; details: GC-O on FFAP column; for FD factor PS: Praya Sowoy (PS) mango cultivar aroma isolate; for FD factor H: Haden (H) mango cultivar aroma isolate, highest dilution at which the aroma was detectable; for FD factor M: Malindi (M) mango cultivar aroma isolate; for FD factor RS: Royal Special (RS) mango cultivar aroma isolate; for FD factor WA: White Alfonso (WA) mango cultivar aroma isolate
Text: The presently disclosed subject matter was developed in part by analytical analyses on regional mangos performed to avoid overlooking any key compounds that can greatly influence the natural flavorings. To overcome the lack of distinct cultivar flavors available for true-fruit mango tastes, the presently disclosed subject matter has created a flavor system using aroma extract dilution analysis (AEDA) on fresh fruit from various mango cultivars. In addition, sensory experiments with the flavor compositions of the formulas given together with omission experiments were used to determine the relative importance of some of the components in the manufactured flavorings. A Flavor Dilution (FD)-chromatogram of the odorants was obtained for the odorants perceived in aroma extracts of various mango samples. FD-factors reflect the highest dilution at which a substance is still smelled and these are typically determined by AEDA.
AEDA is known as a powerful screening method used for the detection of aroma compounds, which combines a quantitative gas chromatography olfactometry (GCO) procedure for determining the potency of odorants in food. Using FD values from the AEDA tests, a base flavor system using compounds found in all the cultivars was created. Next, cultivars were characterized by their differences and cultivar components were designed by combining compounds identified as contributing to the distinct differences. The base and cultivar flavors were confirmed by creating a flavor system and testing the flavor system in a model confectionery product.
Volatile compounds are extracted from the fruit samples. For example, compounds are extracted with diethyl ether and an aroma isolate was prepared via high vacuum distillation. The aroma isolate was then serially diluted to a range of dilutions from 2 to 1,024. The various dilutions are then analyzed by GCO.
The FD factor data depict the highest dilution at which an odorant is still detectable by GCO. FD factors are relative measurements. The measurement is the ratio of the initial concentration to its most dilute extraction. Such measurements are proportional to a compounds odor activity value (OAV), which is the ratio of the concentration to an odor threshold in the air.
Fresh ripe mangos were peeled, the seed was removed, and the flesh was cut into small 4 cm^3 sections. The sections were immediately frozen in liquid nitrogen, ground into a fine powder with a laboratory mill and sequentially extracted with freshly distilled diethyl ether (1×100 mL; 1×50 mL) on an autoshaker at room temperature for 10 minutes. After centrifugation (5000 rpm for 5 minutes), the supernatants were combined and the residue was discarded. The organic layer was then separated in a separatory funnel and the aqueous layer was discarded. The ether extract (total volume: 150 mL) was then subjected to high-vacuum distillation using the SAFE technique (Engel, W.; Bahr, W.; Schieberle, P., Solvent assisted flavour evaporation—a new and versatile technique for the careful and direct isolation of aroma compounds from complex food matrices. European Food Research and Technology 1999, 209, 237-241.). The distillation apparatus was thermostated at 40° C. and kept under high vacuum (10-5 mbar). The sample was dropped into the extraction flask of the apparatus over 40 minutes, after which the extraction was continued for an additional 30 minutes. At the completion of the extraction time, the vacuum was broken and the collection flask was removed. The sample was thawed at room temperature and dried over anhydrous sodium sulfate. The sample was then concentrated to approximately 2 ml using a Vigreux column (50×1 cm) held at 50° C. and finally concentrated (total volume: 200 uL) under a gentle stream of nitrogen. The aroma quality of the isolate was then evaluated to ensure that it closely matched the odor quality of the fresh ripe mango flesh.
An Agilent 6890 series GC system was used for GC-O analysis. […]

[2] = cited from earlier work; for recog. ppb: Table 21, odor thresholds from literature (footnotes a-g); for recognition (ppb) / detection (ppb): Table 8, representative threshold level; for recognition (ppb): point at which a specific taste is recognizable; for detection (ppb): point at which a taste is detected compared to a control such as water
[3] = Odor threshold levels (recognition and detection) of odorants; details: Tables 1-5, relative to the other odorants of the same group
Text: As used herein, “threshold level” relates to an amount at which a flavor is detected or recognized. A detection level is the point at which a taste is detected as compared to a control such as water. A recognition level is the point at which a specific taste is recognizable.
Additional measurements can be used as a proxy for potency, whereby similar calculations can be configured to prepare a base blend. For example, threshold levels can be used to determine a reference point for potency. For example, threshold levels include detection levels, where a taste is detected in comparison to a control, for example water. Threshold levels also include recognition levels whereby a taste is specifically recognized, which is generally a higher level than a mere detection level. The threshold levels achieve an equivalent organoleptic effect whereby a specific target is either detectable or recognized.
By way of example, the following table provides representative threshold levels in ppb for both detection and recognition levels.
The specific odorant listed has been categorized one of the highest potency odorants within the noted class. As such, the highest potency relates to the littlest amount to be used in the composition. Therefore, relative potencies are then computed by orders of magnitude as detailed in the above Table. Additional threshold levels are discussed below in Example 4.
The following Example provides odor thresholds of weakest and strongest odorants with the different aroma groups, as well as alternative compounds for the first tier of odorants. These odorants are representative in defining the unique sensory attributes of the aroma isolates of the different cultivars.

Row | SMILES | FD factor PS [1] | recog. ppb [2] [ppb] | FD factor H [1] | FD factor WA [1] | also measured
1 | CCCCCC/C=C/C=O [(E)-2-nonenal] | 128 | 0.4 | – | – | –
2 | CC(=O)C(C)=O [2,3-butandione] | 32 | 2.9 | – | – | –
3 | CCOC(=O)C(C)C [ethyl-2-methypropanoate] | – | 0.22 | 512 | – | –
4 | CCCCC1CCC(=O)O1 (stereo not drawn) [γ-octalactone] | 128 | 24 | 512 | 512 | FD factor M [1]: 512; FD factor RS [1]: 512; potency within odorant group (footnote *) [3]: *Most potent; recognition (ppb) [2]: 24 ppb; detection (ppb) [2]: 6.5 ppb
5 | C=CC=CC=CCC=CCC [1,3,5,8-undecatetraene] | – | – | – | 128 | FD factor M [1]: 512; FD factor RS [1]: 512
6 | CCOC(=O)C(C)CC (stereo not drawn) [ethyl-2-methybutanoate] | – | 0.063 | 512 | – | potency within odorant group (footnote *) [3]: *Most potent; recognition (ppb) [2]: 0.063 ppb; detection (ppb) [2]: 0.013 ppb
7 | CCOC(=O)CC(C)C [ethyl-3-methylbutanoate] | – | 0.11 | 2048 | – | –
8 | CC1=C(O)C(=O)C(C)O1 (stereo not drawn) [4-hydroxy-2,5-dimethyl-3(2H)-furanone] | 2048 | 160 | 2048 | 2048 | FD factor M [1]: 2048; FD factor RS [1]: 2048
9 | C=C/C(C)=C\CC=C(C)C [β-(Z)-ocimene] | – | 34 | – | 512 | –
10 | CCCCCC(=O)C(C)C(C)=O (stereo not drawn) [3-methyl-2,4-nonandione] | 128 | – | – | – | –
11 | CC(=O)CCC1=C(C)CCCC1(C)C [dihydro-β-ionone] | – | – | – | – | FD factor RS [1]: 128
12 | CC1=C(O)C(=O)OC1C (stereo not drawn) [3-hydroxy-4,5-dimethyl-2(5H)-furanone] | – | 1.1 | – | – | potency within odorant group (footnote *) [3]: *Most potent; recognition (ppb) [2]: 1.1 ppb; detection (ppb) [2]: 0.49 ppb
13 | CC(=O)/C=C/C1=C(C)CCCC1(C)C [β-ionone] | – | 8.4 | – | 512 | FD factor M [1]: 32; FD factor RS [1]: 512; recognition (ppb) [2]: 8.4 ppb; detection (ppb) [2]: 3.5 ppb
14 | CC1=CCC(C(C)(C)S)CC1 (stereo not drawn) [1-p-menthene-8-thiol] | – | 0.0001 | – | – | –
15 | CCc1ncc(C)nc1CC [2,3-diethyl-5 methyl pyrazine] | – | – | – | – | FD factor RS [1]: 128
16 | CC/C=C/CC=O [(E)-3-hexenal] | 512 | 160 | – | – | –

Row | SMILES | FD factor PS [1] | recog. ppb [2] [ppb] | FD factor H [1] | FD factor WA [1] | also measured
17 | C=C/C(C)=C/CC=C(C)C [β-(E)-ocimene] | – | 34 | – | 128 | –
18 | CCCC1CCCC(=O)O1 (stereo not drawn) [δ-octalactone] | – | – | 512 | 128 | FD factor M [1]: 128
19 | CC/C=C\CC/C=C/C=O [(E,Z)-2,6-nonadienal] | 128 | 0.0091 | – | – | potency within odorant group (footnote *) [3]: *Most potent; recognition (ppb) [2]: 0.0091 ppb; detection (ppb) [2]: 0.0045 ppb
20 | CCCCCC1CCCC(=O)O1 (stereo not drawn) [δ-decalactone] | – | 51 | – | – | –
21 | C=C/C=C/C=C\CCCCC [1-(E,Z)-3,5-undecatriene] | – | 0.003 | 512 | 512 | potency within odorant group (footnote *) [3]: *Most potent; recognition (ppb) [2]: 0.003 ppb
22 | CC/C=C\CC=O [(Z)-3-hexenal] | 128 | 0.21 | – | – | –
23 | COC1=C(C)OC(C)C1=O (stereo not drawn) [4-methoxy-2,5-dimethyl-3(2H)-furanone] | – | 3400 | – | – | FD factor RS [1]: 128
24 | CC(=O)C1=NCCC1 [2-acetyl-1-pyrroline] | 128 | – | 512 | – | FD factor M [1]: 512
25 | CSCCC=O [3-(methylthio)-propanal] | – | – | 512 | 32 | –
26 | CCCC(=O)O [butanoic acid] | 128 | 7700 | – | – | –
27 | C=CC(=C)CCC=C(C)C [myrcene] | – | 4.9 | – | 128 | FD factor M [1]: 128; recognition (ppb) [2]: 4.9 ppb; detection (ppb) [2]: 1.2 ppb
28 | CCCC(=O)OCC [ethyl butanoate] | 128 | 2.4 | 2048 | 128 | FD factor RS [1]: 32
29 | OCCc1ccccc1 [2-phenylethanol] | – | – | 128 | – | –
30 | CCCCCCC1CCC(=O)O1 (stereo not drawn) [γ-decalactone] | – | 2.6 | – | – | –
31 | CC(=O)CC(C)(C)S [4-mercapto-4-methyl-2-pentanone] | – | 0.0001 | – | – | recognition (ppb) [2]: 0.0001 ppb
